Data reported in US20240122872A1, “COMPOSITIONS AND METHODS FOR TREATMENT OF MICROBIAL INFECTIONS” (EpiTop, Inc., priority 2022, published 2024).
Read-outs that look alike come from different tables or passages of the source.

How the values were obtained:
[1] = system: Streptococcus pyogenes (ATCC BAA-19615); experiment: Bactericidal assay (colony count), S. pyogenes; conditions: 2 hours at 37° C.; concentration as low as 0.0001%; thujopsene (0.001%), totarol (0.0001%) or combination
coronavirus (229E-VR740) = experiment: Relative gene expression of coronavirus 229E in human fibroblasts (real time RT-PCR); format: cell-based; conditions: 0.01% or 0.02% thujopsene, 24 hours
Description: Human fibroblasts (Atcc.org, CCL-191) were treated with coronavirus (229E) and 0.01% or 0.02% of thujopsene for 24 hours, and then RNAs were isolated and PCRs were performed. Total RNA was isolated according to manufacturer's guidelines. RNeasy Mini Kits (Qiagen, Germantown, MD) were used according to the manufacturer's protocol to isolate RNA. RNA was reverse transcribed into cDNA using SuperScript® VILO™ MasterMix according to manufacturer's protocol and DNA was isolated according to manufacturer's guidelines. cDNAs were analyzed by real time RT-PCR by using an ABI Prism 7300 sequence detector.

[2] = system: coronavirus 229E (VR-740); experiment: Coronavirus 229E-mediated destruction of human fibroblasts (microscopy); format: cell-based; conditions: 229E 0.05 pfu/cell, 3 days or 5 days
Description: Normal human lung fibroblst (ATCC.org, CCL-191) were seeded at 1×10^5 cells/well in 24 well plates (Becton Dickinson, Torreyana, CA) and allowed to grow to confluence overnight at 37° C., 5% CO2 in Earle's MEM with 10% fetal calf serum (FCS). To examine whether thujopsene prevents coronavirus (229E)-induced destruction of fibroblast, fibroblasts were incubated with thujopsene (0.00, 0.01 or 0.02%) and 229E (0.05 pfu/cell) for 3 days or 5 days at 37° C. and 5% CO2. Then cell images (x25 magnification) were taken with the microscopy (Leica, Wetzler, Germany).

HSV-1 = HSV-1 plaque assay (virus incubated with thujopsene, BS-C-1 cells); format: cell-based
Description: BS-C-1 African green monkey kidney cells were seeded at 2×10^5 cells/well in 24 well plates (Becton Dickinson, Torreyana, CA) and allowed to grow to confluence overnight at 37° C., 5% CO2 in Earle's MEM with 10% fetal calf serum (FCS). To examine the effects of thujopsene, 0, 0.01, and 0.02% of thujopsene were incubated with […] HSV-1 for 2 or 4 hours, at 37° C. and 5% CO2. For the plaque assay, the medium was removed and wells were overlaid with 0.5 ml 4% buffered formalin, allowed to fix for 10 minutes at room temperature. The formalin was removed and 0.5 ml 0.1% crystal violet in PBS was added to the wells for 5 minutes at room temperature. Wells were then aspirated and the air-dried for visualization of plaques.

Vaccinia virus (VV) = format: cell-based

Compound | Inhibition of S. Pyogenes [1] | Relative gene expression of 229E (coronavirus VR740) (coronavirus (229E-VR740); 0.01 pfu/cell) | Relative gene expression of 229E (coronavirus VR740) (coronavirus (229E-VR740); 0.05 pfu/cell) | Cellular structure of fibroblasts after treatment with coronavirus 229E ([2]; 0.01% thujopsene) | Cellular structure of fibroblasts after treatment with coronavirus 229E ([2]; 0.02% thujopsene) | Decrease of titers of virus (HSV-1; 2-hour incubation with 0.01% thujopsene) | Decrease of titers of virus (HSV-1; 2-hour incubation with 0.01% thujopsene (first statement)) | Decrease of titers of virus (HSV-1; 4-hour incubation with 0.01% thujopsene) | Decrease of titers of virus (Vaccinia virus (VV); 2-hour incubation with 0.02% thujopsene) | Decrease of titers of virus (Vaccinia virus (VV); 4-hour incubation with 0.02% thujopsene)
CC(C)c1c(O)ccc2c1CC[C@H]1C(C)(C)CCC[C@]21C [totarol] | significantly inhibited |  |  |  |  |  |  |  |  | 
CC1=CC[C@]2(C)CCCC(C)(C)[C@@]23C[C@@H]13 [thujopsene] | significantly inhibited | decreased in a dose-dependent manner | decreased in a dose-dependent manner | the cellular structures were maintained | the cellular structures were maintained | at least 90% | at least 50% | at least 90% | at least 25% | at least 25%
